The text below walks through data of patent publication US12077503B2, “Substituted cyclic amides and their use as herbicides” (FMC CORPORATION, priority 2015, dated 2024).

What all share (type): in vivo
The test system of one assay is Kochia (Kochia scoparia). In words: Test A postemergence. The note with it: Bassia scoparia, post-emergence, 240 h; for pest or weed control at 125 g/ha: 125 g ai/ha, postemergence; for pest or weed control at 31 g/ha: Postemergence, 31 g ai/ha, visual injury after approx. 10 d, 0 to 100 scale, 0 no effect, 100 complete control. In a few lines: (§1)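 Each rating is a visual injury score from 0 to 100 given about 10 d after treatment, judged against untreated controls kept alongside in the greenhouse. In loam soil–sand blend, seeds got a preemergence directed soil spray, while postemergence plants were 2 to 10 cm tall at spraying.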

Assay [1] relates to ragweed (common ragweed, Ambrosia elatior). Nature of the assay: Test A postemergence. Conditions: Ambrosia artemisiifolia, post-emergence, 240 h; for pest or weed control at 125 g/ha: 125 g ai/ha, postemergence; for pest or weed control at 31 g/ha: Postemergence, 31 g ai/ha, visual injury after approx. 10 d, 0 to 100 scale, 0 no effect, 100 complete control. In outline:
as §1

The test system of assay [2] is pigweed (Amaranthus retroflexus). In words: Test A postemergence. The note with it: Amaranthus retroflexus, post-emergence, 240 h; for pest or weed control at 125 g/ha: 125 g ai/ha, postemergence; for pest or weed control at 31 g/ha: Postemergence, 31 g ai/ha, visual injury after approx. 10 d, 0 to 100 scale, 0 no effect, 100 complete control. In outline: as §1
For assay [3], the system named is giant foxtail (Setaria faberii). Nature of the assay: Test A postemergence. The note with it: Setaria faberi, post-emergence, 240 h; for pest or weed control at 125 g/ha: 125 g ai/ha, postemergence; for pest or weed control at 31 g/ha: Postemergence, 31 g ai/ha, visual injury after approx. 10 d, 0 to 100 scale, 0 no effect, 100 complete control. In a few lines: as §1

Assay [4] concerns ryegrass, Italian (Italian ryegrass, Lolium multiflorum). In words: Test A postemergence. The note with it: Lolium multiflorum, post-emergence, 240 h; for pest or weed control at 125 g/ha: 125 g ai/ha, postemergence; for pest or weed control at 31 g/ha: Postemergence, 31 g ai/ha, visual injury after approx. 10 d, 0 to 100 scale, 0 no effect, 100 complete control. In a few lines: as §1

The test system of assay [5] is Galium (catchweed bedstraw, Galium aparine). In words: Test A postemergence. Conditions: Galium, post-emergence, 240 h; for pest or weed control at 125 g/ha: 125 g ai/ha, postemergence; for pest or weed control at 31 g/ha: Postemergence, 31 g ai/ha, visual injury after approx. 10 d, 0 to 100 scale, 0 no effect, 100 complete control. In a few lines: as §1
Assay [6] deals with blackgrass (Alopecurus myosuroides). In words: Test A postemergence. The note with it: Alopecurus myosuroides, post-emergence, 240 h; for pest or weed control at 125 g/ha: 125 g ai/ha, postemergence; for pest or weed control at 31 g/ha: Postemergence, 31 g ai/ha, visual injury after approx. 10 d, 0 to 100 scale, 0 no effect, 100 complete control. In a few lines:
as §1

For assay [7], the system named is barnyardgrass (Echinochloa crus-galli). In words: Test A postemergence. Conditions: Echinochloa crus-galli, post-emergence, 240 h; for pest or weed control at 125 g/ha: 125 g ai/ha, postemergence; for pest or weed control at 31 g/ha: Postemergence, 31 g ai/ha, visual injury after approx. 10 d, 0 to 100 scale, 0 no effect, 100 complete control. In outline: as §1
The subject of assay [8] is wheat (Triticum aestivum). In words: Test A postemergence. Conditions: Triticum aestivum, post-emergence, 240 h; for plant injury at 31 g/ha: Postemergence, 31 g ai/ha, visual injury after approx. 10 d, 0 to 100 scale, 0 no effect, 100 complete control, read-out: Plant response rating, Wheat; for plant injury at 125 g/ha: 125 g ai/ha, postemergence, visual injury rating after approximately 10 d, read-out: Wheat plant response rating (0 to 100 scale, 0 no effect, 100 complete control). In a few lines: as §1

Another assay relates to corn (Zea mays). In words: Test A postemergence. Conditions: Zea mays, post-emergence, 240 h; for Corn plant response rating (crop injury, 0 = no effect, 100 = complete kill) at 31 g/ha: Postemergence, 31 g ai/ha, visual injury after approx. 10 d, 0 to 100 scale, 100 complete control; for plant injury at 125 g/ha: visual injury rating after approximately 10 d, read-out: Corn plant response rating (0 to 100 scale, 0 no effect, 100 complete control). In a few lines: as §1

For the next assay, the system named is rice (Oryra sativa). Nature of the assay: Test B flooded paddy test. Conditions: Oryza sativa, Flood, 250 g ai/ha; scale of 0 to 100 where 0 is no effect and 100 is complete control; read-out: Rice plant response rating. In outline: (§2)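 Visual ratings (0 none to 100 complete control) are relative to untreated plants, taken 13–15 d after treatment in a greenhouse. Test material went straight into floodwater standing 3 cm above the soil, kept constant, on plants at the 2-leaf stage.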

Assay [9] concerns ducksalad (Heteranthera limosa). Nature of the assay: Test B flooded paddy test. Conditions: Heteranthera limosa, Flood, 250 g ai/ha; scale of 0 to 100 where 0 is no effect and 100 is complete control; read-out: Ducksalad plant response rating. In outline: as §2
The test system of assay [10] is barnyardgrass (Echinochloa crus-galli). Nature of the assay: Test B flooded paddy test. Conditions: Echinochloa crus-galli, Flood, 250 g ai/ha; scale of 0 to 100 where 0 is no effect and 100 is complete control; read-out: Barnyardgrass plant response rating. In a few lines:
as §2

Assay [11] deals with sedge, umbrella (small-flower umbrella sedge, Cyperus difformis). Nature of the assay: Test B flooded paddy test. Conditions: Cyperus difformis, Flood, 250 g ai/ha; scale of 0 to 100 where 0 is no effect and 100 is complete control; read-out: Sedge, Umbrella plant response rating. In outline: as §2
[12] abbreviates: read-out: Plant response rating, Kochia.
Where [13] appears, read: read-out: Plant response rating, Ragweed.
The mark [14] stands for this setting: read-out: Plant response rating, Pigweed.
Where [15] appears, read: read-out: Plant response rating, Foxtail, Giant.
[16] abbreviates: read-out: Plant response rating, Ryegrass, Italian.
The mark [17] stands for this setting: read-out: Plant response rating, Galium.
Where [18] appears, read: read-out: Plant response rating, Blackgrass.
Where [19] appears, read: read-out: Plant response rating, Barnyardgrass.
Setting [20] is: visual injury rating after approximately 10 d, read-out: Kochia plant response rating (0 to 100 scale, 0 no effect, 100 complete control).
The mark [21] stands for this setting: visual injury rating after approximately 10 d, read-out: Ragweed plant response rating (0 to 100 scale, 0 no effect, 100 complete control).
Setting [22] is: visual injury rating after approximately 10 d, read-out: Pigweed plant response rating (0 to 100 scale, 0 no effect, 100 complete control).
Setting [23] is: visual injury rating after approximately 10 d, read-out: Foxtail, Giant plant response rating (0 to 100 scale, 0 no effect, 100 complete control).
Where [24] appears, read: visual injury rating after approximately 10 d, read-out: Ryegrass, Italian plant response rating (0 to 100 scale, 0 no effect, 100 complete control).
Where [25] appears, read: visual injury rating after approximately 10 d, read-out: Galium plant response rating (0 to 100 scale, 0 no effect, 100 complete control).
[26] abbreviates: visual injury rating after approximately 10 d, read-out: Blackgrass plant response rating (0 to 100 scale, 0 no effect, 100 complete control).
Where [27] appears, read: visual injury rating after approximately 10 d, read-out: Barnyardgrass plant response rating (0 to 100 scale, 0 no effect, 100 complete control).

Like-named read-outs stand apart in the source and are kept apart here.

Turning to `Cc1cc(F)cc([C@H]2CN(C)C(=O)[C@@H]2C(=O)Nc2cccc(F)c2C#N)c1` [Compound 800], the pest or weed control at 125 g/ha in the assay on Kochia (Kochia scoparia) (visual injury after approximately 10 d, 0 to 100 scale (0 no effect, 100 complete control), read-out: Plant response rating, Kochia) turned out to be 0%; in assay [1] (visual injury after approximately 10 d, 0 to 100 scale (0 no effect, 100 complete control), read-out: Plant response rating, Ragweed), 0%; in [2] (visual injury after approximately 10 d, 0 to 100 scale (0 no effect, 100 complete control), read-out: Plant response rating, Pigweed), 40%; in assay [3] (visual injury after approximately 10 d, 0 to 100 scale (0 no effect, 100 complete control), read-out: Plant response rating, Foxtail, Giant) it was 80%; in [4] (visual injury after approximately 10 d, 0 to 100 scale (0 no effect, 100 complete control), read-out: Plant response rating, Ryegrass, Italian), 20%; in assay [5] (visual injury after approximately 10 d, 0 to 100 scale (0 no effect, 100 complete control), read-out: Plant response rating, Galium), 30%. Besides, the pest or weed control at 125 g/ha worked out at 20% in assay [6] (visual injury after approximately 10 d, 0 to 100 scale (0 no effect, 100 complete control), read-out: Plant response rating, Blackgrass) and 80% in assay [7] (visual injury after approximately 10 d, 0 to 100 scale (0 no effect, 100 complete control), read-out: Plant response rating, Barnyardgrass). In addition, the pest or weed control at 31 g/ha with Kochia (Kochia scoparia) (setting [12]) was found to be 0%; in assay [1] (setting [13]), 0%; in assay [2] (setting [14]), 20%; in assay [3] (setting [15]) it was 80%; in [4] (setting [16]) it was 0%; in assay [5] (setting [17]), 0%. Also, the pest or weed control at 31 g/ha in assay [6] (setting [18]) was 0%; in [7] (setting [19]), 80%. Further, the plant injury at 31 g/ha in assay [8] turned out to be 0%. Also, the Corn plant response rating (crop injury, 0 = no effect, 100 = complete kill) at 125 g/ha in the assay on corn (Zea mays) (125 g ai/ha, postemergence, visual injury after approximately 10 d, 0 to 100 scale (0 no effect, 100 complete control)) was 20%. This compound showed a Corn plant response rating (crop injury, 0 = no effect, 100 = complete kill) at 31 g/ha in the assay on corn (Zea mays) of 0%. For the same compound, the pest or weed control at 250 g/ha in the assay with rice (Oryra sativa) worked out at 30%; in assay [9], 95%; in assay [10] it was 95%; in [11], 0%.

Take `Cc1cc(F)cc([C@H]2CN(C)C(=O)[C@@H]2C(=O)Nc2cccc(F)c2C)c1` [Compound 802]: the pest or weed control at 125 g/ha in the assay with Kochia (Kochia scoparia) (setting [20]) came out at 40%; in [1] (setting [21]) it was 30%; in assay [2] (setting [22]), 40%; in assay [3] (setting [23]) it was 90%; in assay [4] (setting [24]), 40%; in [5] (setting [25]) it was 60%. Further, the pest or weed control at 125 g/ha in [6] (setting [26]) was 60%; in [7] (setting [27]), 80%. Further, the pest or weed control at 31 g/ha in the assay with Kochia (Kochia scoparia) (setting [12]) was 20%; in assay [1] (setting [13]), 0%; in assay [2] (setting [14]), 30%; in assay [3] (setting [15]), 70%; in assay [4] (setting [16]) it was 0%; in [5] (setting [17]), 0%. The pest or weed control at 31 g/ha in [6] (setting [18]) is 20%; in [7] (setting [19]) it was 80%. The plant injury at 125 g/ha is 30% in assay [8] and 70% in the assay on corn (Zea mays) (125 g ai/ha, postemergence). Besides, the plant injury at 31 g/ha in assay [8] was 0%. In addition, the Corn plant response rating (crop injury, 0 = no effect, 100 = complete kill) at 31 g/ha with corn (Zea mays) amounted to 20%. Moreover, the pest or weed control at 250 g/ha was found to be 20% in the assay with rice (Oryra sativa), 100% in [9], 90% in assay [10] and 0% in assay [11].

Consider `CN1C[C@H](c2ccc(C(F)(F)F)c(Br)c2)[C@@H](C(=O)Nc2cccc(F)c2F)C1=O` [Compound 804], for which the pest or weed control at 125 g/ha was found to be 70% with Kochia (Kochia scoparia) (setting [20]); 0% in [1] (setting [21]); 60% in assay [2] (setting [22]); 80% in assay [3] (setting [23]); 0% in assay [4] (setting [24]); 50% in assay [5] (setting [25]). In addition, the pest or weed control at 125 g/ha in assay [6] (setting [26]) is 20%; in assay [7] (setting [27]), 70%. For the same compound, the pest or weed control at 31 g/ha was found to be 40% in the assay on Kochia (Kochia scoparia) (setting [12]); 0% in [1] (setting [13]); 50% in assay [2] (setting [14]); 60% in [3] (setting [15]); 0% in [4] (setting [16]); 40% in assay [5] (setting [17]). Besides, the pest or weed control at 31 g/ha in [6] (setting [18]) was 0%; in [7] (setting [19]) it was 20%. The plant injury at 125 g/ha in [8] turned out to be 20%; in the assay on corn (Zea mays) (125 g ai/ha, postemergence) it was 50%. In assay [8], the plant injury at 31 g/ha is 0%. Also, the Corn plant response rating (crop injury, 0 = no effect, 100 = complete kill) at 31 g/ha with corn (Zea mays) stood at 0%. For the same compound, the pest or weed control at 250 g/ha in the assay on rice (Oryra sativa) was 60%; in assay [9], 80%; in assay [10], 30%; in assay [11] it was 0%.
